{
  "source": "patent US20220088010A1",
  "about": "“Co-Administration of inhibitors to produce insulin producing gut cells” (The Trustees of Columbia University in the City of New York, priority 2019, published 2022)",
  "key": {"[1]": {"tested_on": "intestine enteroendocrine cells", "assay": "Initial DBZ i.p. followed by FBT9 via enterojejunal catheter (24 hrs after DBZ); intestine analyzed for enteroendocrine cell content by immunohistochemistry", "assay_type": "in vivo, mouse", "details": "FBT9 from 24 hrs later", "description": "The experiment consisted of performing surgery on 8-week-old mice to implant an enterojejujnal catheter to deliver drugs locally to the intestinal mucosa. After a 1-week recovery period, mice were treated with a single i.p. injection of DBZ or vehicle control. Administration of Foxo1 inhibitor compound 9 (Langlet et al. 2017 Cell, see below)\n(§1) was initiated either on the same day or on the following day, t.i.d. by injection via enterojejunal catheter for 3 days. At the end of the experiment, mice were sacrificed and the intestine analyzed for enteroendocrine cell content using immunohistochemistry. […] The treatment regime of FIG. 10 involved administering the first dose of FBT9 with DBZ followed by subsequent doses of FBT9."}, "[2]": {"tested_on": "intestine enteroendocrine cells of Foxo1 heterozygous knockouts", "assay": "Co-treatment: DBZ with first dose of FBT9, then FBT9 3 days TID; intestine immunohistochemistry", "assay_type": "in vivo, mouse", "details": "DBZ alone or FBT9 x3 days TID alone (FIG. 9)", "description": "FIG. 8 provides graphs showing the effect of co-treatment of FBT9 and DBZ (DBZ administered in conjunction with first dose of FBT9 followed by sequential administration of FBT9 3 days TID) on body weight and plasma glucose in Foxo1 heterozygous knockouts.\nThe experiment consisted of performing surgery on 8-week-old mice to implant an enterojejujnal catheter to deliver drugs locally to the intestinal mucosa. After a 1-week recovery period, mice were treated with a single i.p. injection of DBZ or vehicle control.\nas §1"}, "[3]": {"tested_on": "Mouse gut organoid from a wild type mouse", "assay": "FBT10 treatment of mouse gut organoid, immunohistochemistry", "assay_type": "cell-based", "details": "after 72 hrs of treatment; FIG. 18", "description": "Mouse gut organoid from a wild type mouse was treated with FBT10 (Compound 10, Langlet et al. 2017 Cell, see below)."}, "[4]": {"tested_on": "intestine enteroendocrine cells", "assay": "Co-administration of FBT10 (enterojejunal catheter) and DBZ (i.p.) in mice; intestine immunohistochemistry", "assay_type": "in vivo, mouse", "details": "FBT10 t.i.d. 3 days with single i.p. DBZ; FIG. 19", "description": "The protocol used above in Example 1 was followed for testing a combination of FBT10 and DBZ. The experiment consisted of performing surgery on 8-week-old mice to implant an enterojejujnal catheter to deliver drugs locally to the intestinal mucosa. After a 1-week recovery period, mice were treated with a single i.p. injection of DBZ or vehicle control. Administration of Foxo1 inhibitor compound 10 (FBT10) was initiated either on the same day or on the following day, t.i.d. by injection via enterojejunal catheter for 3 days. At the end of the experiment, mice were sacrificed and the intestine analyzed for enteroendocrine cell content using immunohistochemistry. Regarding the graphs indicating effects on Body weight and blood glucose, each line represents an individual animal. […] No insulin-positive cells were found in vehicle treated duodenum or colon."}, "[5]": {"tested_on": "gut cells of NOD mice", "assay": "FBT10 in NOD mice over 96 hr; gut micrographs", "assay_type": "in vivo, mouse", "details": "96 hr period, FIG. 20", "description": "NOD mice (mouse model whose pancreatic beta cells are destroyed by immunological response) were treated with FBT10 or vehicle over a 96 hr period. […] Insulin-positive cells were not detected in the colon. FIG. 20 also provides graphs showing effects on body weight and blood glucose (each graph line represents an individual animal)"}, "[6]": {"tested_on": "gut cells of Foxo1 knockout mice", "assay": "Oral gavage of ROCK inhibitor Y-27632 in Foxo1 knockout mice; intestine immunohistochemistry", "assay_type": "in vivo, mouse", "details": "for number of insulin-positive cells in Foxo1 knockout mice not treated with ROCKi relative to those treated: Y-27632 oral gavage q.d. 2 days, FIG. 17, dihydrochloride", "description": "The experiment consisted of treating 8-week-old mice (Foxo1 knockout mice) by oral gavage dosing of Y-27632, q.d., for 2 days. On day 3, mice were sacrificed and the intestine analyzed for enteroendocrine cell content using immunohistochemistry. The arrows in FIGS. 15 and 16 represent c-peptide and insulin-positive cells, which resemble true beta-like cells."}, "[7]": {"tested_on": "Gut Ins+ cells", "assay": "Insulin secretion by Gut Ins+ cells, block by diazoxide"}},
  "note": "“Also recorded” adds a separate entry of the source.",
  "data": [
    {"compound": "C[C@H](NC(=O)Cc1cc(F)cc(F)c1)C(=O)N[C@@H]1C(=O)N(C)c2ccccc2-c2ccccc21", "note": "[DBZ]", "values": [
      {"measurement": "number of Serotonin (5HT)-positive cells", "setting": "[1]", "value": "increased"},
      {"measurement": "number of Somatostatin-positive cells", "setting": "[1]", "value": "increased"},
      {"measurement": "number of Glp1-positive cells", "setting": "[1]; duodenum and jejunum", "value": "increased"},
      {"measurement": "ins+ cells after individual treatment", "setting": "[2]", "value": "neither which produced ins+ cells"}
    ]},
    {"compound": "COc1ccc(C(=O)Nc2cc(-c3nc4ccccc4[nH]3)n[nH]2)cc1Cl", "note": "[FBT9, N-(3-(1H-benzo[d]imidazole-2-yl)-1H-pyrazol-5-yl)-3-chloro-4-methoxybenzamide]", "values": [
      {"measurement": "ins+ cells after individual treatment", "setting": "[2]", "value": "neither which produced ins+ cells"}
    ]},
    {"compound": "CN1CCN(c2ccc(C(=O)Nc3cc(-c4nc5ccccc5[nH]4)n[nH]3)cc2)CC1", "note": "[FBT10, N-(3-(1H-benzo[d]imidazol-2-yl)-1H-pyrazol-5-yl)-4-(4-methylpiperazin-1-yl)benzamide]", "values": [
      {"measurement": "insulin and serotonin (5HT) positive cells", "setting": "[3]", "value": "some of the cells turned into insulin and serotonin (5HT) positive cells"},
      {"measurement": "insulin-positive cells in duodenum and colon", "setting": "[4]", "value": "present in the duodenum and colon"},
      {"measurement": "insulin-positive cells in the colon", "setting": "[5]", "value": "not detected"},
      {"measurement": "insulin-positive cells in the jejunum", "setting": "[5]", "value": "generated insulin-positive cells"}
    ]},
    {"compound": "C[C@@H](N)[C@H]1CC[C@H](C(=O)Nc2ccncc2)CC1.Cl.Cl", "note": "[Y27632, (+)-(R)-trans-4-(1-aminoethyl)-N-(4-pyridyl)cyclohexanecarboxamide dihydrochloride]", "values": [
      {"measurement": "Epcam counterstain of insulin-positive cells", "setting": "[6]; Foxo1 knockout mice treated with ROCKi, FIG. 16", "value": "insulin-positive cells are epithelial"},
      {"measurement": "number of insulin-positive cells in Foxo1 knockout mice not treated with ROCKi relative to those treated", "setting": "[6]; listed as ROCK inhibitor", "value": "decreases dramatically"},
      {"measurement": "number of insulin-positive cells in Foxo1 knockout mice not treated with ROCKi relative to those treated", "setting": "[6]; listed as ROCKi", "value": "significantly lower"},
      {"measurement": "C-peptide staining of Ins+ cells in the gut", "setting": "[6]; homozygous Foxo1 knockout mice, FIG. 15", "value": "positive for C-peptide"}
    ]},
    {"compound": "CC1=NS(=O)(=O)c2cc(Cl)ccc2N1", "note": "[diazoxide]", "values": [
      {"measurement": "insulin secretion / release by Gut Ins+ cells", "setting": "[7]", "value": "can be blocked; also recorded: can be shut off"}
    ]}
  ]
}
